What was measured:
Format in all cases: biochemical
[1] = target: T1, cloned human mu opioid receptor (Homo sapiens, UniProt P35372); assay: GTP-γ-S binding assay (SPA), antagonist mode, mu; details: functional antagonist potency; membranes with cloned human mu receptor; agonist DAMGO 1 micromolar; Cheng-Prusoff
T1 construct: expressed in transfected cells
Experimental: (§1) The functional antagonist potency (Kb) of the sample compounds was determined using the GTPγS binding assay. GTPgS—based functional assays provide an in vitro measure of the activity of opioid agonists and antagonists. Opioid reference compounds or test compound are incubated with membrane homogenate from cells expressing the cloned human mu, kappa or delta opioid receptor and radiolabeled [35S]GTPgS. If the compound activates the opioid receptor, an increase in the binding of radiolabeled GTPgS is observed. […] These tests provide an in vitro measurement of the activity of the compound at human opioid receptors.
(§2) An SPA-based GTP-γ-S assay format was developed based on previous opioid (Emmerson et al., J. Pharm Exp Ther 278,1121,1996; Horng et al., Society for Neuroscience Abstracts, 434.6, 2000) and muscarinic (DeLapp et al., JPET 289, 946, 1999) assay formats. Membranes were resuspended in 20 mM HEPES, 100 mM NaCl, 5 mM MgCl2, 1 mM DTT, and 1 mM EDTA. Fifty (50) […] of GTP-γ-[35S], compound, membrane suspension (20 microgram/well), and wheat germ agglutinin coated SPA beads (1 mg/well) were added to clear bottom 96 well assay plates. GDP ([…]) was added to the membrane solution prior to addition to the assay plates. Plates were sealed and incubated for four hours at room temperature then placed in a refrigerator overnight to allow the beads to settle. Signal stability at 4° C. was determined to be >60 hours. Plates were warmed to room temperature and counted in a Wallac Microbeta scintillation counter. For antagonist assays, specific agonists were added at the following concentrations: (MOR) DAMGO 1 micromolar, (DOR) DPDPE 30 nM, (KOR) U69593 300 nM. Kb's were determined by Cheng-Prusoff equation (see Cheng and Prusoff, Biochem. Pharmacol. 22, 3099, 1973).

[2] = target: T2, cloned human kappa opioid receptor (Homo sapiens, UniProt P41145); assay: GTP-γ-S binding assay (SPA), antagonist mode, kappa; details: functional antagonist potency; membranes with cloned human kappa receptor; agonist U69593 300 nM; Cheng-Prusoff
T2 construct: expressed in transfected cells
Experimental: as §1, §2

[3] = target: T3, cloned human delta opioid receptor (Homo sapiens, UniProt P41143); assay: GTP-γ-S binding assay (SPA), antagonist mode, delta; details: functional antagonist potency; membranes with cloned human delta receptor; agonist DPDPE 30 nM; Cheng-Prusoff
T3 construct: expressed in transfected cells
Experimental: as §1, §2

T3 sequence (P41143 whole entry): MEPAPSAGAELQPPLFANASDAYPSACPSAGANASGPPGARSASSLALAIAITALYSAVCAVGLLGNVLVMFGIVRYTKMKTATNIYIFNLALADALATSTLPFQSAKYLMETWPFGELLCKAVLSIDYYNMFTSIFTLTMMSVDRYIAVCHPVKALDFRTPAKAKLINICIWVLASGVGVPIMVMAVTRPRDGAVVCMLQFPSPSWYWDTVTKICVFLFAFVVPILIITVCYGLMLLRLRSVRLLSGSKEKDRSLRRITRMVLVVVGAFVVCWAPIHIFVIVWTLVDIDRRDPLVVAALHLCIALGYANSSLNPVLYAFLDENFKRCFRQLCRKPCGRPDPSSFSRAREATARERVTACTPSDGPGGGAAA
T2 sequence (P41145 whole entry): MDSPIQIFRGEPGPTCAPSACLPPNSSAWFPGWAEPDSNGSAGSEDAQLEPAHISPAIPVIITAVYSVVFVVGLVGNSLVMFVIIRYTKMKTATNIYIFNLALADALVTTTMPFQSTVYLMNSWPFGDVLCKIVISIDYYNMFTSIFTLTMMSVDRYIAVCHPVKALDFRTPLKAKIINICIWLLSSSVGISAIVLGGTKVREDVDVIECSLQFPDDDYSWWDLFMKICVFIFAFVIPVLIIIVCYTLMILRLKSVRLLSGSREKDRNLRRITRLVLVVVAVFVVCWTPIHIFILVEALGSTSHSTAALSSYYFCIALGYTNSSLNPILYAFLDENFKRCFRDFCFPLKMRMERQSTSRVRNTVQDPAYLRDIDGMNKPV
T1 sequence (P35372 whole entry): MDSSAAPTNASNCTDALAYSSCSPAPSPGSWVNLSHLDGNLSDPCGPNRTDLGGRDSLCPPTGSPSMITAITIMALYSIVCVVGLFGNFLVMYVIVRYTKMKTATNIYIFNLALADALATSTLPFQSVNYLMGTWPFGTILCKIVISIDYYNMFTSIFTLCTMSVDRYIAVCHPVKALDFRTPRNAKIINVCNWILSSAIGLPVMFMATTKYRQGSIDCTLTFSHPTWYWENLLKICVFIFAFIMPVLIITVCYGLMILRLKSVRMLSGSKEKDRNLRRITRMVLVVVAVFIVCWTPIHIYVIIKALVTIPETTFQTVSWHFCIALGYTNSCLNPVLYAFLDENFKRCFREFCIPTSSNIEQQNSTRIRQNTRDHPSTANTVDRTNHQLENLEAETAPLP

Row | SMILES | Kb [1] | Kb [2] | Kb [3]
1 | CCCCCCNCc1ccc2c(c1)CCc1cc(C(N)=O)ccc1O2 [Example 6, 8-Hexylaminomethyl-10,11-dihydro-dibenzo[b,f]oxepine-2-carboxylic acid amide] | 0.7 nM | 4.4 nM | 10.3 nM
2 | CC(C)(C)CCNCc1ccc2c(c1)CCc1cc(C(N)=O)ccc1O2 [Example 13, 8-[(3,3-Dimethyl-butylamino)-methyl]-10,11-dihydro-dibenzo[b,f]oxepine-2-carboxylic acid amide] | 4 nM | 12.1 nM | 14.4 nM
3 | NC(=O)c1ccc2c(c1)CCc1cc(CNCCC3CCCC3)ccc1O2 [Example 14, 8-[(2-Cyclopentyl-ethylamino)-methyl]-10,11-dihydro-dibenzo[b,f]oxepine-2-carboxylic acid amide] | 0.6 nM | 8.6 nM | 7 nM
4 | CC(C)CCCNCc1ccc2c(c1)CCc1cc(C(N)=O)ccc1O2 [Example 3, 8-[(4-Methyl-pentylamino)-methyl]-10,11-dihydro-dibenzo[b,f]oxepine-2-carboxylic acid amide] | 0.8 nM | 6.5 nM | 7.4 nM
5 | CC(C)CNCc1ccc2c(c1)CCc1cc(C(N)=O)ccc1O2 [Example 2, 8-(Isobutylamino-methyl)-10,11-dihydro-dibenzo[b,f]oxepine-2-carboxylic acid amide] | 12 nM | 29.8 nM | –
6 | NC(=O)c1ccc2c(c1)CCc1cc(CNCCc3cccs3)ccc1O2 [Example 4, 8-[(2-Thiophen-2-yl-ethylamino)-methyl]-10,11-dihydro-dibenzo[b,f]oxepine-2-carboxylic acid amide] | 0.9 nM | 12.6 nM | 7.1 nM
7 | CCOCCCNCc1ccc2c(c1)CCc1cc(C(N)=O)ccc1O2 [Example 17, 8-[(3-Ethoxy-propylamino)-methyl]-10,11-dihydro-dibenzo[b,f]oxepine-2-carboxylic acid amide] | 2.1 nM | 25.7 nM | 26.7 nM
8 | CCCCCNCc1ccc2c(c1)CCc1cc(C(N)=O)ccc1O2 [Example 5, 8-Pentylaminomethyl-10,11-dihydro-dibenzo[b,f]oxepine-2-carboxylic acid amide] | 1.7 nM | 4.9 nM | –
9 | CC(C)CCNCc1ccc2c(c1)CCc1cc(C(N)=O)ccc1O2 [Example 1, 8-[(3-Methyl-butylamino)-methyl]-10,11-dihydro-dibenzo[b,f]oxepine-2-carboxilic acid amide] | 1.2 nM | 6.1 nM | 11 nM
10 | NC(=O)c1ccc2c(c1)CCc1cc(CNCCC3CCOCC3)ccc1O2 [Example 12, 8-{[2-(Tetrahydro-pyran-4-yl)-ethylamino]-methyl}-10,11-dihydro-dibenzo[b,f]oxepine-2-carboxylic acid amide] | 0.7 nM | 2.2 nM | 2.1 nM

From patent US7288543B2, “Opioid receptor antagonists” (Eli Lilly and Company, priority 2004, dated 2007)
